Patent US6878711B2, “Indole derivatives as PDE5-inhibitors” (Lilly Icos LLC, priority 2000, dated 2005)

Key:
[1] = target: human recombinant PDE5 (Homo sapiens, UniProt O76074); test: Inhibitory effect on cGMP-PDE (one-step assay, 8-[H3]-cGMP)
[2] = target: T1, PDE5 (bovine aorta) (Bos taurus, UniProt Q28156); test: Inhibitory effect on cGMP-PDE, enzyme from bovine aorta; format: biochemical; conditions: vs. bovine aorta
T1 construct: from tissue; host or cells: bovine aorta
Description: Biophys. Acta, 384, 430 (1975).

| Compound | melting point | IC50 [1] | also measured |
| --- | --- | --- | --- |
| CN1CCN2[C@H](c3ccc4c(c3)OCO4)c3[nH]c4ccccc4c3C[C@@H]2C1=O [Example 1, (6R,12aR)-6-Benzo[1,3]dioxol-5-yl-2-methyl-3,4,6,7,12,12a-hexahydro-2H-pyrazino[1′,2′:1,6]pyrido[3,4-b]indole-1-one] |  | 54 nM |  |
| CN1CCN2[C@@H](c3ccc4c(c3)OCO4)c3[nH]c4ccccc4c3C[C@@H]2C1=O [Example 2, (6S,12aR)-6-Benzo[1,3]dioxol-5-yl-2-methyl-3,4,6,7,12,12a-hexahydro-2H-pyrazino-[1′2′:1,6]pyrido[3,4-b]indol-1-one] |  | 575 nM |  |
| CN1CCN2[C@@H](c3ccc4c(c3)OCO4)c3[nH]c4ccccc4c3C[C@H]2C1=O [Example 3] |  |  | IC50 [2]: 100 nM |
| O=C1CNC[C@H]2Cc3c([nH]c4ccccc34)[C@@H](c3ccc4c(c3)OCO4)N12 [Example 4] |  | 2.3 nM |  |

The next lines start with results.

| melting point | IC50 [1] | Compound | also measured |
| --- | --- | --- | --- |
| 158 to 162 °C |  | CN1CC(=S)N2[C@H](c3ccc4c(c3)OCO4)c3[nH]c4ccccc4c3C[C@@H]2C1=S |  |
| 177 to 182 °C |  | CN1CC(=S)N2[C@H](c3ccc4c(c3)OCO4)c3[nH]c4ccccc4c3C[C@H]2C1=S [Example 6, (6R,12aS)-6-Benzo[1,3]dioxol-5-yl-2-methyl 2,3,6,7,12,12a-hexahydropyrazino[1′,2′:1,6]pyrido[3,4-b]indole-1,4-dithione] |  |
